Read-outs that look alike come from different tables or passages of the source.
Molecular target: T1, mouse CB1 receptor (Mus musculus, UniProt P47746)
T1 construct: radioligand displacement assay using mouse brain plasma membranes; from tissue; host or cells: mouse brain plasma membranes
Assay: radioligand displacement assay using mouse brain plasma membranes and 3H-CP55540
Assay type: binding
Excerpt: In addition, the compounds disclosed herein may be less lipophilic.

T1 sequence (P47746 whole entry): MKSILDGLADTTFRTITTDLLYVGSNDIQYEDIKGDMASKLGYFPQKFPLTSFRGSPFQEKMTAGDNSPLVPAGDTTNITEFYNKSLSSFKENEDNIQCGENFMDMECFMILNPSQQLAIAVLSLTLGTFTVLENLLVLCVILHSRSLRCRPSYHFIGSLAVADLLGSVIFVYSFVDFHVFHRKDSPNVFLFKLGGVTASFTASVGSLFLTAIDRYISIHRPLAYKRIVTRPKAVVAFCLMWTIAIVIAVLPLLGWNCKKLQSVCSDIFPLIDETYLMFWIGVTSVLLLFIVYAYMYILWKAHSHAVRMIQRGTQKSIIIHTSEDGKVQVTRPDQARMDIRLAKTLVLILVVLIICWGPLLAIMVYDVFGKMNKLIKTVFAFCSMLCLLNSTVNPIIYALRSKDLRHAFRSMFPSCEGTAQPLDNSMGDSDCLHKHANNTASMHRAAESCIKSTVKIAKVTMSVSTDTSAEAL

Row | Compound | Ki (mouse brain plasma membranes, 3H-CP55540 as labeled ligand, read-out: Ki CB1) [nM] | Ki [nM]
1 | CC(=O)NC(=N)NC(=NS(=O)(=O)N1CCC(F)(F)CC1)N1CC(c2ccccc2)C(c2ccc(Cl)cc2)=N1 (stereo not drawn) [MRI-1950] | 1.2 | –
2 | CC(C)(C)/C(N)=N/C(=N/S(=O)(=O)N1CCC(F)(F)CC1)N1CC(c2ccccc2)C(c2ccc(Cl)cc2)=N1 (stereo not drawn) [Table 1 Serial # 10] | – | 21
3 | C/C(N)=N/C(=N/S(=O)(=O)N1CCC(C(F)(F)F)CC1)N1CC(c2ccccc2)C(c2ccc(Cl)cc2)=N1 (stereo not drawn) [Table 1 Serial # 13] | – | 3

Source: patent US10329259B2, “Pyrazole derivatives and their use as cannabinoid receptor mediators” (The United States of America, as represented by the …, priority 2014, dated 2019)
